What all share (assay type): cell-based
Assay [1] deals with T1, NVL-SNAP (recombinant NVL WT; SNAP-NVL-3xFlag) (Homo sapiens, UniProt O15381).
T1 sequence (O15381 1-856): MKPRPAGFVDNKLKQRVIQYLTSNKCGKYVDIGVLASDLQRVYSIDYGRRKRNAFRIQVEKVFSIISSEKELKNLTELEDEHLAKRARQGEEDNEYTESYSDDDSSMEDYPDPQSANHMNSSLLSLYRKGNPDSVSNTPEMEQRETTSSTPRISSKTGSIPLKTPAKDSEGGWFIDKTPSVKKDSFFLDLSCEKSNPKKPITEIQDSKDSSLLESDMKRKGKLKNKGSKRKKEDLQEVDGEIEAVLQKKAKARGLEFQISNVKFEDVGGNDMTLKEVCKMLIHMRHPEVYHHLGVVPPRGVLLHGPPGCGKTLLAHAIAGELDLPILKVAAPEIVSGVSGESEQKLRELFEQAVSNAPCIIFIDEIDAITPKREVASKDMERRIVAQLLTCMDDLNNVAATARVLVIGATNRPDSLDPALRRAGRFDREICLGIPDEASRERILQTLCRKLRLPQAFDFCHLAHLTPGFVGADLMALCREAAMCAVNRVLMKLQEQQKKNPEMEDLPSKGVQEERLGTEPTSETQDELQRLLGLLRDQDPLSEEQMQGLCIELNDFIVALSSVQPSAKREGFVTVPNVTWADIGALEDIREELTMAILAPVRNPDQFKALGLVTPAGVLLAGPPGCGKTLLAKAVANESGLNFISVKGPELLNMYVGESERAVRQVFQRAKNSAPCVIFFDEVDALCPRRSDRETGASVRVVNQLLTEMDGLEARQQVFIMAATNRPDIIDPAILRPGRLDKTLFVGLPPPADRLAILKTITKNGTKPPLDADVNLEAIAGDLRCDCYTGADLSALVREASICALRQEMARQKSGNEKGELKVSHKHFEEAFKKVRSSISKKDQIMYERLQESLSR
In words: in-cell UV photocrosslinking, click dye, gel fluorescence of purified NVL.

Assay [2] has as its target T2, NVL-SNAP (recombinant NVL WT; SNAP-NVL-3xFlag) (Homo sapiens, UniProt O15381, R403W).
T2 sequence (O15381 1-856 R403W): T1 sequence (O15381 1-856) with R403W
The description is as above.

Assay [3] has as its target T1, NVL-SNAP (recombinant NVL WT; SNAP-NVL-3xFlag). As to the kind of experiment: competition of MM514 photocrosslinking to NVL-SNAP.

The text below walks through data of paper doi:10.1101/2025.07.31.667081v1 (biorxiv, 2025).

Numbering of substitutions follows the chain as printed.

As to `C#CCOCCN1C(=O)c2ccccc2Sc2cc(NC(=O)c3ccc(N=[N+]=[N-])cc3)ccc21` [MM514, 4-Azido-N-(11-oxo-10-(2-(prop-2-yn-1-yloxy)ethyl)-10,11-dihydro-dibenzo[b,f][1,4]thiazepin-7-yl)benzamide], the concentration for a half-maximal effect (EC50) (commonly the concentration that produces a half-maximal response) in assay [1] was 0.49 µM; in assay [2] it was over 17 µM. For the compound `COCCN1C(=O)c2ccccc2Sc2cc(NC(=O)c3ccc(OC)cc3)ccc21` [MM524, 4-Methoxy-N-(10-(2-methoxyethyl)-11-oxo-10,11-dihydrodibenzo[b,f][1,4]thiazepin-7-yl)benzamide], the EC50 in assay [3] came out at 2.6 µM. As to `COCCN1C(=O)c2ccccc2Sc2cc(NC(=O)c3ccccc3OC)ccc21` [MM691, 2-Methoxy-N-(10-(2-methoxyethyl)-11-oxo-10,11-dihydrodibenzo[b,f][1,4]thiazepin-7-yl)benzamide], in assay [3], the EC50 was 26 µM.
